{"source": "patent US7041463B2", "about": "“Orthologues of human receptors and methods of use” (Pharmacopeia Drug Discovery, Inc., priority 2000, dated 2006)", "key": {"cloned rat NK1 receptor": {"biological_target": "cloned rat NK1 receptor (Rattus norvegicus, UniProt P14600)", "sequence (P14600 whole entry)": "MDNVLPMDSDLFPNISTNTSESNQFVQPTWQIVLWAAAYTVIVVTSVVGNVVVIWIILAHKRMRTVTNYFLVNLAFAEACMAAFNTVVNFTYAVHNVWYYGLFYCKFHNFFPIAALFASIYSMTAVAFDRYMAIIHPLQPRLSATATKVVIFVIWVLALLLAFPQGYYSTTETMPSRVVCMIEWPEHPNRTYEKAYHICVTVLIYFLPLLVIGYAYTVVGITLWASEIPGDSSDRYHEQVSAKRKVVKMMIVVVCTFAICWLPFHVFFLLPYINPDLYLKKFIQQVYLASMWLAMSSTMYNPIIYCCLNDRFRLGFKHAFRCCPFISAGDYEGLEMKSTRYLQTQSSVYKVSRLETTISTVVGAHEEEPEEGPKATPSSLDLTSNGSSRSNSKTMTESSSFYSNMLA", "details": "cited from earlier work"}, "[1]": {"biological_target": "T1, cholecystokinin-B receptor (Homo sapiens, UniProt P32239)", "T1 sequence (P32239 1-447 V349L)": "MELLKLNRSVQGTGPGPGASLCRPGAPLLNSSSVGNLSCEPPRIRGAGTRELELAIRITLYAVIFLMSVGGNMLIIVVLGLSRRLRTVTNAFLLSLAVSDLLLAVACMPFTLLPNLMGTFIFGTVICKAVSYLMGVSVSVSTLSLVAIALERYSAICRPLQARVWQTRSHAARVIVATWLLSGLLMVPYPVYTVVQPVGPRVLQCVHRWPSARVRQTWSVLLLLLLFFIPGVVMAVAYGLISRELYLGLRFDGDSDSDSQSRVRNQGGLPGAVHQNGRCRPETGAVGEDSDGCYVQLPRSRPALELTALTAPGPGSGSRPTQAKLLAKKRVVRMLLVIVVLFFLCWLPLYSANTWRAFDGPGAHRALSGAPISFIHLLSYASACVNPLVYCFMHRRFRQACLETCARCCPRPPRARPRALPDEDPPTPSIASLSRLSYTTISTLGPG", "details": "human receptor with valine 319 substituted by leucine vs human receptor; cited from earlier work"}, "[2]": {"biological_target": "rhesus macaque B1 receptor", "sequence (as listed by the source)": "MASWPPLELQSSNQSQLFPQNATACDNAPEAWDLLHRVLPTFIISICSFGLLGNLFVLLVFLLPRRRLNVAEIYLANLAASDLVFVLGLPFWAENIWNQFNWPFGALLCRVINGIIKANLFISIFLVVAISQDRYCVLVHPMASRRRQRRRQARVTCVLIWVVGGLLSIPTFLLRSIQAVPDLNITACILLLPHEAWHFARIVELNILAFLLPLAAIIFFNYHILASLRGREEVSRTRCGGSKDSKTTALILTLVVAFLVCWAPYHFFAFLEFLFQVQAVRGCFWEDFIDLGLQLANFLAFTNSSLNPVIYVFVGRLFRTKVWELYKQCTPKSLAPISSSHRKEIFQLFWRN", "assay": "[3H]-des-Arg10-kallidin binding, 293E membranes, rhesus macaque B1", "set-up": "species or system rhesus macaque (Macaca mulatta)", "details": "0.6 nM [3H]-dAKd", "procedure": "(§1) Membrane preparations for use in accordance with the methods of the present invention were generated as follows. 293E cells expressing B1 receptors were harvested and pelleted. Cells were washed once with PBS and once with a membrane buffer (for example, 10 mM HEPES pH 7.5, 1 μM phosphoramidon, 3 μM amastatin, 1 μM captopril, 2 μM dithiothreitol (DTT)). Cells were resuspended in membrane buffer and Dounce homogenized on ice 35 times. The membranes were collected by centrifugation at 15,000×g for 30 min. at 4° C. and resuspended in membrane buffer containing 0.2% bovine serum albumin (BSA) at a final concentration of approximately 5×10^7 cell equivalents per ml. Aliquots were flash frozen and stored at −80° C. Frozen aliquots were subsequently thawed, diluted, and sonicated on ice using a Branson Sonifier® 250 (4×5 sec, 40% output).\n(§2) Prior to use in a binding assay, a membrane preparation is “calibrated” as described below to determine the amount of membrane preparation to be used. […]\n(§3) The method of the present invention employs a binding assay such as the one described below. […] 50 μl of scintillation fluid was added to each well and plates were counted in a Wallac Microbeta® TriLux for 10 min. per well."}, "tree shrew B1 receptor": {"biological_target": "tree shrew B1 receptor", "sequence (as listed by the source)": "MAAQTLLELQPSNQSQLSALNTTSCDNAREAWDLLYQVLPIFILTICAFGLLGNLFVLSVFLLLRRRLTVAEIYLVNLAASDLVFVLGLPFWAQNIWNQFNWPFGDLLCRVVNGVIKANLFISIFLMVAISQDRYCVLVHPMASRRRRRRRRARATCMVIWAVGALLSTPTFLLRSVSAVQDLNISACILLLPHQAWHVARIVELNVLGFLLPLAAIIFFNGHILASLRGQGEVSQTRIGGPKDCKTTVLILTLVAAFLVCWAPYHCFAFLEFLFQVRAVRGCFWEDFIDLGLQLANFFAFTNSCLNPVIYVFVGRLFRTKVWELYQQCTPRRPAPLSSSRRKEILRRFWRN", "assay": "[3H]-des-Arg10-kallidin binding, 293E membranes, tree shrew B1", "set-up": "species or system tree shrew (Tupaia minor)", "details": "0.6 nM [3H]-dAKd", "procedure": "as §1, §2, §3"}, "human B1 receptor": {"biological_target": "T2, human B1 receptor (Homo sapiens, UniProt P46663)", "T2 construct": "expressed in transfected cells; host or cells: 293-EBNA (293E) cells, membranes", "T2 sequence (P46663 1-353)": "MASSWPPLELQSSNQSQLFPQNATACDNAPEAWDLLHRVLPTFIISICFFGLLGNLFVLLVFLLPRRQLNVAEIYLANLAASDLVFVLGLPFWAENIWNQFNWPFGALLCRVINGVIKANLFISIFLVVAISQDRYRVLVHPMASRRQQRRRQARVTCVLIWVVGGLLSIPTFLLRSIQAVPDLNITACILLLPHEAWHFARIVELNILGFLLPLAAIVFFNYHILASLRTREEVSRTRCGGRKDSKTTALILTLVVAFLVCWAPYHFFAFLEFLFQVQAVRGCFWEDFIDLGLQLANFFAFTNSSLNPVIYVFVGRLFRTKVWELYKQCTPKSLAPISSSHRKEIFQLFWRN", "assay": "[3H]-des-Arg10-kallidin binding, 293E membranes, human B1", "details": "0.6 nM [3H]-dAKd", "source_text": "Prior to use in a binding assay, a membrane preparation is “calibrated” as described below to determine the amount of membrane preparation to be used. A frozen sample of a membrane preparation is thawed and the preparation diluted in assay buffer to obtain several different concentrations of membranes, for example, 1:5, 1:10, 1:20, 1:40 and so on. The diluted membrane preparation is sonicated in a bath style sonicator for 15 seconds at room temperature. […]"}, "dog B1": {"biological_target": "T3, dog B1 (Canis lupus familiaris, UniProt Q9BDQ5, D322E/F324Y/R319K)", "T3 construct": "the chimeric canine/human receptor described above was used in the experiments described below; C-terminal cytoplasmic tail of human bradykinin B1 receptor (fusion partner of the chimera); expressed in transfected cells; host or cells: 293-EBNA (293E) cells, membranes", "T3 sequence (Q9BDQ5 with tags, fused parts or gaps R319K/D322E/F324Y)": "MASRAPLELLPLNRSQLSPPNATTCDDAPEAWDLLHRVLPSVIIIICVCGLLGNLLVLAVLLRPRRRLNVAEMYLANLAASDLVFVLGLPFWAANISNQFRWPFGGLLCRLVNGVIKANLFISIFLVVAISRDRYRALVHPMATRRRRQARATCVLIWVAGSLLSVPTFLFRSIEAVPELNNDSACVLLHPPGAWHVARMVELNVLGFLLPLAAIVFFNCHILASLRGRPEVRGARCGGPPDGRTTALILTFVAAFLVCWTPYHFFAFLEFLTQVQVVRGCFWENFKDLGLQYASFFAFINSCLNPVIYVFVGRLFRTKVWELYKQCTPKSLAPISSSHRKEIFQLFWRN", "assay": "[3H]-des-Arg10-kallidin binding, 293E membranes, dog B1 (canine/human chimera)", "details": "0.6 nM [3H]-dAKd", "description": "Additionally, a canine/human chimeric bradykinin B1 receptor comprising amino acids 1 to 320 of the canine sequence and amino acids 319–353 of human bradykinin B1 receptor was generated. Any number of chimeric molecules, for example, a chimera comprising amino acids 1–315 of the canine sequence and amino acids 314–353 of the human sequence can be used.\nas §1, with “Frozen aliquots were subsequently thawed, diluted, and sonicated on ice using a Branson Sonifier® 250 (4×5 sec, 40% output).” left out\nas §3"}, "pig B1": {"biological_target": "pig B1", "sequence (as listed by the source)": "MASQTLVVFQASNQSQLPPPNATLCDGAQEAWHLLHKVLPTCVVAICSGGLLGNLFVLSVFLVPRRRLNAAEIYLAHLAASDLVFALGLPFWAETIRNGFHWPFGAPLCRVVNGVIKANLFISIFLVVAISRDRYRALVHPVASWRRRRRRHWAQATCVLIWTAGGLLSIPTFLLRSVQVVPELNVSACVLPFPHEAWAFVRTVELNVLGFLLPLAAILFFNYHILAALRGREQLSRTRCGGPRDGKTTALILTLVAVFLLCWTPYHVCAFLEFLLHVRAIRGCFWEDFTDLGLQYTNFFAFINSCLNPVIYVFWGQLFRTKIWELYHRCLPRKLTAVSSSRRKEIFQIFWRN", "assay": "[3H]-des-Arg10-kallidin binding, 293E membranes, pig B1", "details": "0.6 nM [3H]-dAKd", "procedure": "as §1, §2, §3"}, "rabbit B1": {"biological_target": "T4, rabbit B1 (Oryctolagus cuniculus, UniProt P48748)", "T4 construct": "expressed in transfected cells; host or cells: 293-EBNA (293E) cells, membranes", "T4 sequence (P48748 1-352)": "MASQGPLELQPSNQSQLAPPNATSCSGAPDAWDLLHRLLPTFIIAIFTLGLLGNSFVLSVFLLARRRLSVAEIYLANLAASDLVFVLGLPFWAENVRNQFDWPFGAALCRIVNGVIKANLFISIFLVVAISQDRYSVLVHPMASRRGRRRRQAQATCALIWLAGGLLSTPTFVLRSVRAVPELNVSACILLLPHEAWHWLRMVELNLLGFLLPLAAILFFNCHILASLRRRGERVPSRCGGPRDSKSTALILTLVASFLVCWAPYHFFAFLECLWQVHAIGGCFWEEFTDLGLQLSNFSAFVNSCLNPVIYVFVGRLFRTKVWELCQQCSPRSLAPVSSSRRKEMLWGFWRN", "assay": "[3H]-des-Arg10-kallidin binding, 293E membranes, rabbit B1", "details": "0.6 nM [3H]-dAKd", "procedure": "as §1, §2, §3"}}, "data": [{"molecule": "COc1ccccc1CN[C@H]1C2CCN(CC2)[C@H]1C(c1ccccc1)c1ccccc1", "note": "[CP-96,345]", "values": [{"measurement": "IC50", "setting": "cloned rat NK1 receptor", "value": 40, "unit": "nM"}]}, {"molecule": "Cc1cccc(NC(=O)N[C@@H]2N=C(c3ccccc3)c3ccccc3N(C)C2=O)c1", "note": "[Compound L365260]", "values": [{"measurement": "decrease of binding affinity", "setting": "[1]", "value": 20, "unit": "fold"}]}, {"molecule": "[des-Arg^9]BK (RPPGFSPF) [dABk]", "values": [{"measurement": "affinity (K1) at rhesus macaque B1, in words", "setting": "[2]", "value": "inactivity"}, {"measurement": "affinity (K1) at tree shrew B1, in words", "setting": "tree shrew B1 receptor", "value": "inactivity"}, {"measurement": "affinity (K1) at human B1, in words", "setting": "human B1 receptor", "value": "inactivity"}, {"measurement": "affinity (K1) at dog B1, in words", "setting": "dog B1", "value": "low nM potency"}, {"measurement": "affinity (K1) at pig B1, in words", "setting": "pig B1", "value": "weak activity"}, {"measurement": "affinity (K1) at rabbit B1, in words", "setting": "rabbit B1", "value": "weak activity"}]}]}
